Results published in ChEMBL document CHEMBL1201862, “PubChem BioAssay data set” (2004).
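Briefly, cells in 96-well plates were exposed to five compound concentrations for 48 h, and endpoints were estimated by linear interpolation. GI50: concentration for 50% inhibition of growth.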 Activity calls are given as the source filed them. No stated cut-off is given here; in the data, active = GI50 up to about 1.1 µM and inactive = higher.

Assays:
Assay in all cases: NCI anticancer screen, dose series, 48 h
HOP-92 = test system: HOP-92
SF-295 = test system: SF-295
K562 = test system: K562
HT-29 = test system: HT-29
EKVX = test system: EKVX
RPMI-8226 = test system: RPMI-8226
SK-MEL-2 = test system: SK-MEL-2
TK-10 = test system: TK-10
UACC-257 = test system: UACC-257
OVCAR-3 = test system: OVCAR-3
LOX IMVI = test system: LOX IMVI
HCT-15 = test system: HCT-15
NCI-H226 = test system: NCI-H226
786-0 = test system: 786-0
NCI-H522 = test system: NCI-H522
MDA-N = test system: MDA-N
Malme-3M = test system: Malme-3M
HCC 2998 = test system: HCC 2998
MCF7 = test system: MCF7

SMILES | GI50 (HOP-92) | GI50 (SF-295) | GI50 (K562) | GI50 (HT-29) | GI50 (EKVX) | GI50 (RPMI-8226) | GI50 (SK-MEL-2) | GI50 (TK-10) | GI50 (UACC-257) | GI50 (OVCAR-3) | GI50 (LOX IMVI) | GI50 (HCT-15) [µM] | GI50 (NCI-H226) | GI50 (786-0) | GI50 (NCI-H522) | GI50 (MDA-N) | GI50 (Malme-3M) | GI50 (HCC 2998) | GI50 (MCF7)
ClC1=NN=C(c2c[nH]c3ccccc23)CC1NCc1ccccc1 (stereo unspecified) | > 100 µM (inactive) | > 100 µM (inactive) | > 100 µM (inactive) | > 100 µM (inactive) | > 100 µM (inactive) | > 100 µM (inactive) | > 100 µM (inactive) | > 100 µM (inactive) | > 100 µM (inactive) | > 100 µM (inactive) | > 100 µM (inactive) | > 100 | > 100 µM (inactive) | > 100 µM (inactive) | > 100 µM (inactive) | > 100 µM (inactive) | > 100 µM (inactive) |  | 
CSc1ccc(-c2cc(-c3nc4ccccc4[nH]3)nc3[nH]c(-c4nc5ccccc5[nH]4)cc(=O)c23)cc1 | > 100 µM (inactive) | 86.1 µM (inactive) | 42 µM (inactive) | 68.5 µM (inactive) | 27.1 µM (inactive) | 41.9 µM (inactive) | > 100 µM (inactive) | > 100 µM (inactive) | > 100 µM (inactive) | > 100 µM (inactive) | 42.5 µM (inactive) | > 100 | 84.5 µM (inactive) | > 100 µM (inactive) | > 100 µM (inactive) |  | > 100 µM (inactive) | 5.33 µM (inactive) | 34 µM (inactive)
CS(=O)(=O)c1nc(-c2cc3c(c(S(C)(=O)=O)n2)CCC3)cc2c1CCCCC2 |  | 31.7 µM (inactive) | > 100 µM (inactive) | > 100 µM (inactive) | > 100 µM (inactive) | > 100 µM (inactive) | 24.8 µM (inactive) | 42.7 µM (inactive) | > 100 µM (inactive) | > 100 µM (inactive) | > 100 µM (inactive) | > 100 | 56.6 µM (inactive) | 70.8 µM (inactive) | 15.2 µM (inactive) | > 100 µM (inactive) | 34.5 µM (inactive) | > 100 µM (inactive) | 
CCN(CC)c1ccc(C2SCC(=O)N2c2ccc(NC(=O)c3ccc(N4C(=O)CSC4c4ccc(N(CC)CC)cc4)cc3)cc2)cc1 (stereo unspecified) | > 100 µM (inactive) | 30.1 µM (inactive) | 47.6 µM (inactive) | 75 µM (inactive) | > 100 µM (inactive) |  | > 100 µM (inactive) | > 100 µM (inactive) | > 100 µM (inactive) | 71.4 µM (inactive) | 67 µM (inactive) | > 100 |  | > 100 µM (inactive) | > 100 µM (inactive) |  | > 100 µM (inactive) | > 100 µM (inactive) | 79.4 µM (inactive)
Cc1ccc(OCC2OC(C#N)C(Oc3ccc(C)cc3)C2Oc2ccc(C)cc2)cc1 (stereo unspecified) |  | > 100 µM (inactive) | > 100 µM (inactive) | > 100 µM (inactive) | > 100 µM (inactive) | > 100 µM (inactive) | 51.8 µM (inactive) |  |  | > 100 µM (inactive) |  | > 100 | > 100 µM (inactive) | > 100 µM (inactive) | > 100 µM (inactive) |  |  | > 100 µM (inactive) | > 100 µM (inactive)
C=C1C(O)CC[C@]2(C)C1C1OC(C)(C)O[C@]13CC(=O)C(C)=C([C@H]1OC(C)(C)OC12)C3(C)C (stereo partly specified) |  | > 100 µM (inactive) | 90.2 µM (inactive) | > 100 µM (inactive) | > 100 µM (inactive) | 96.8 µM (inactive) |  | > 100 µM (inactive) | > 100 µM (inactive) | > 100 µM (inactive) | > 100 µM (inactive) | > 100 | > 100 µM (inactive) | > 100 µM (inactive) |  |  | > 100 µM (inactive) | > 100 µM (inactive) | 65.8 µM (inactive)
Oc1cc(-c2ccc(F)cc2)nc2ncccc12 | 45.3 µM (inactive) |  | 22.2 µM (inactive) | 42.7 µM (inactive) | 39.4 µM (inactive) | 37.1 µM (inactive) | 33.5 µM (inactive) | > 100 µM (inactive) | 30.5 µM (inactive) |  | 45.5 µM (inactive) | 34.2 | 24.3 µM (inactive) |  | 35.4 µM (inactive) |  | 65.6 µM (inactive) | > 100 µM (inactive) | 38.5 µM (inactive)
C[N+]1(CCCC[N+]2(C)CCCCCCC2)CCCCCCC1 | 77.1 µM (inactive) | > 100 µM (inactive) | > 100 µM (inactive) | > 100 µM (inactive) | > 100 µM (inactive) | > 100 µM (inactive) | > 100 µM (inactive) | > 100 µM (inactive) | > 100 µM (inactive) | > 100 µM (inactive) | > 100 µM (inactive) | > 100 | > 100 µM (inactive) | > 100 µM (inactive) | > 100 µM (inactive) | > 100 µM (inactive) | > 100 µM (inactive) |  | 
O=C(c1ccc(O)cc1O)C1C(c2ccc(O)cc2)OC(c2ccc(O)cc2)C1C(=O)c1ccc(O)cc1O (stereo unspecified) |  | 25.5 µM (inactive) |  | 34.2 µM (inactive) | 21.2 µM (inactive) |  | 22 µM (inactive) | 14.7 µM (inactive) | 20.5 µM (inactive) | 18.7 µM (inactive) | 19.5 µM (inactive) |  | 17.2 µM (inactive) | 5.38 µM (inactive) | 16.5 µM (inactive) |  | 14.2 µM (inactive) | 13.8 µM (inactive) | 
